Laboratory results taken from US8865901B2, “Gain-of-function Bcl-2 inhibitors” (priority 2009, dated 2014).
pEC50, pIC50: −log10 of the molar value. Where “and” joins values, the source holds several entries; their conditions need not be identical. Identical values can stand only once. Like-named read-outs stand apart in the source and are kept apart here.

Assays:
[1] = system: TAMH cells overexpressing Bcl-xL (TAMH-Bcl-xL, Tabx2s); assay: Cytotoxicity / apoptosis induction in TAMH cells overexpressing Bcl-xL; format: cell-based; settings: for Neo/Bcl-xL: selectivity ratio
Description: (§1) To examine the sensitivity of cells over-expressing Bcl-xL to various mitochondrial inhibitors and apoptosis inducers, cell lines over-expressing Bcl-xL were prepared and tested according to Hockenberry et al. U.S. Pat. No. 7,241,804, hereby incorporated by reference in its entirety. Competitive binding of compounds with fluorescent antimycin A3, and competitive binding of compounds with BH3 peptide and Bcl-2. Competitive binding of compounds with BH-3 peptide were also measured using Bcl-xL as previously described. Id.
(§2) Cell lines were grown in RPMI 1640 medium (Gibco, Grand Island, N.Y.) supplemented with 5% fetal bovine serum (Hyclone, Logan, Utah). Also shown is the ratio of TAMH cells expressing Bcl-xL to those expressing A142L (WT:142L). The assay measures the potency of various compounds with respect to inducing apoptosis in these cells.
(§3) The compounds described in Example 2 were tested for their ability to inhibit Bcl-2 gain-of-function in TAMH cells, TAMH cells overexpressing […] (TAMH-Bcl-xL), TAMH cells transfected with Neo vector (Neo), TAMH cells over expressing a variant of Bcl-xL (A142L) using the methods of Example 1. 3-6.
(§4) The effects of the compounds described in Example 8 on TAMH cells, TAMH cells overexpressing Bcl-xL (TAMH-Bcl-xL), TAMH cells transfected with Neo vector (Neo), TAMH cells over expressing a variant of Bcl-xL (A142L) is shown in Table 8
(§5) The effects of the compounds described in Example 10 on TAMH cells, TAMH cells overexpressing Bcl-xL (TAMH-Bcl-xL), TAMH cells transfected with Neo vector (Neo), TAMH cells over expressing a variant of Bcl-xL (A142L) is shown in the following Table 10

[2] = system: TAMH cells transfected with Neo vector (Neo); assay: Cytotoxicity / apoptosis induction in TAMH cells transfected with Neo vector; format: cell-based
Description: as §1, §2, §3, §4, §5

[3] = Table 15, read-out: IC50 TAMH Bcl-XL
[4] = Table 15, read-out: IC50 TAMH Neo
[5] = Table 10, read-out: IC50 TAMH Bcl-XL
[6] = Table 10, read-out: IC50 TAMH Neo
[7] = Table 13, read-out: IC50 TAMH Bcl-xL
[8] = Table 13, read-out: IC50 TAMH Neo

SMILES: Cc1cc(C)c(O)c(Cc2cccc(Cc3cc(C)cc(C)c3O)c2O)c1 [Compound 48168]
- Fold Select. (Neo/Bcl-xL) ([1]; Table 13): 0

SMILES: O=[N+]([O-])c1ccc(S(=O)(=O)Cc2ccccc2)c([N+](=O)[O-])c1 [Compound 122657]
- Fold Selectivity (Neo/Bcl-XL) ([1]; Table 15): 3.9
- pIC50 [1, 3]: 5.46
- pIC50 [2, 4]: 4.87

SMILES: CN(C)Cc1cc(Cl)cc(Sc2cc(Cl)cc(CN(C)C)c2O)c1O [Compound 62419]
- Fold Select. (Neo/Bcl-XL) ([1]; Table 10): 1.8
- pIC50 [1, 5]: 4.70
- pIC50 [2, 6]: 4.44

SMILES: Oc1ccc(Cl)cc1Sc1cc(Cl)ccc1O [Compound 4112]
- Fold Select. (Neo/Bcl-XL) ([1]; Table 10): 2.3
- pIC50 [1, 5]: 5.70
- pIC50 [2, 6]: 5.33

SMILES: [O-][S+](c1cc(Cl)ccc1O)c1cc(Cl)ccc1O [Compound 24019]
- Fold Select. (Neo/Bcl-XL) ([1]; Table 10): 5.7
- pIC50 [1, 5]: 5.25
- pIC50 [2, 6]: 4.49

SMILES: OCc1cc(Cl)cc(Cc2cc(Cl)cc(Cc3cc(Cl)cc(CO)c3O)c2O)c1O [Compound 48445]
- Fold Select. (Neo/Bcl-xL) ([1]; Table 13): 2.5
- pIC50 [1, 7]: 5.74
- pIC50 [2, 8]: 5.35

SMILES: Cc1cc(Cc2cc(Cc3cc(C)cc(C(C)(C)C)c3O)c(C)cc2C)c(O)c(C(C)(C)C)c1 [Compound 57725]
- Fold Select. (Neo/Bcl-xL) ([1]; Table 13): −0

SMILES: COc1ccc(C)cc1Cc1cc(C)cc(Cc2cc(C)ccc2O)c1OC [Compound 0036]
- pEC50 ([1]; Table 5, TAMH cells overexpressing Bcl-xL (Tabx2s), read-out: 2S EC50): 5.72
- pEC50 ([2]; Table 5, TAMH Neo cells, read-out: Neo EC50): 4.76

SMILES: COc1ccc(C(=O)N/N=C2\C(=O)c3c(C)cc(C)cc3CC2(C)C)cc1 [Compound 310343]
- pIC50 ([1]; Mus musculus, TAMH, Table 16, read-out: TAMH Bcl-XL IC50): 4.60
- Fold Selectivity (Neo/Bcl-XL) ([1]; Table 16): >4
- pIC50 ([2]; Mus musculus, TAMH, Table 16, read-out: TAMH Neo IC50): < 4.00

SMILES: CCN(Cc1cc(Cl)cc(C)c1O)Cc1c(O)ccc2ccccc12 [Compound 88850]
- Neo/Bcl-XL ([1]; Table 18): 2.7
- pEC50 ([1]; Table 18, read-out: Bcl-XL): 5.35
- pEC50 ([2]; Table 18, read-out: Neo): 4.92

SMILES: O=[N+]([O-])c1ccc(S(=O)(=O)Cc2ccccc2)c2nonc12 [Compound 228148]
- pEC50 ([1]; Table 8, read-out: TAMH Bcl-xL): 5.22
- Neo/Bcl-xL ([1]; Table 8): 3.8
- Fold Selectivity (Neo/Bcl-XL) ([1]; Table 15): 3.8
- pIC50 [1, 3]: 5.22
- pEC50 ([2]; Table 8, read-out: TANH Neo): 4.65
- pIC50 [2, 4]: 4.65

SMILES: Cc1c(Cl)c(C)c(Sc2c(C)c(Cl)c(C)c(Br)c2O)c(O)c1Br [Compound 9874]
- Fold Select. (Neo/Bcl-XL) ([1]; Table 10): 2.8
- pIC50 [1, 5]: 6.15
- pIC50 [2, 6]: 5.70

SMILES: CC(=O)c1cc(Cc2cc(C)cc(C)c2O)c(O)c(Cc2cc(C)cc(C)c2O)c1 [Compound 48705]
- Fold Select. (Neo/Bcl-xL) ([1]; Table 13): 0

SMILES: Oc1ccc(Cl)cc1Cc1cc(Cl)cc(Cc2cc(Cl)ccc2O)c1O [Compound 47932]
- pEC50 ([1]; Table 8, read-out: TAMH Bcl-xL): 6.30
- Neo/Bcl-xL ([1]; Table 8): 7
- Fold Select. (Neo/Bcl-xL) ([1]; Table 13): 7
- pIC50 [1, 7]: 6.30
- pEC50 ([2]; Table 8, read-out: TANH Neo): 5.46
- pIC50 [2, 8]: 5.46

SMILES: Oc1ccc(Sc2ccc(O)cc2O)c(O)c1 [Compound 59828]
- Fold Select. (Neo/Bcl-XL) ([1]; Table 11): 0

SMILES: Oc1ccc(Cl)cc1Sc1cc(Cl)ccc1O [Compound 55636]
- pEC50 ([1]; Table 8, read-out: TAMH Bcl-xL): 5.72
- Neo/Bcl-xL ([1]; Table 8): 7.7
- Fold Select. (Neo/Bcl-XL) ([1]; Table 10): 7.7
- pIC50 [1, 5]: 5.72
- pEC50 ([2]; Table 8, read-out: TANH Neo): 4.83
- pIC50 [2, 6]: 4.83

SMILES: Cc1cc(C)c(O)c(Cc2cc(Cl)cc(Cc3cc(C)cc(C)c3O)c2O)c1 [Compound 48167]
- Fold Select. (Neo/Bcl-xL) ([1]; Table 13): 4
- pIC50 [1, 7]: 5.85
- pIC50 [2, 8]: 5.25

SMILES: Oc1c(CCl)cc(Cl)cc1Cc1cc(Cl)cc(Cc2cc(Cl)cc(CCl)c2O)c1O [Compound 48444]
- Fold Select. (Neo/Bcl-xL) ([1]; Table 13): 9.3
- pIC50 [1, 7]: 5.89
- pIC50 [2, 8]: 4.92

SMILES: CN(C)Cc1cc(Cl)cc(Cc2cc(Cl)cc(CN(C)C)c2O)c1O.Cl [Compound 39242]
- Fold Select. (Neo/Bcl-XL) ([1]; Table 11): 0

SMILES: Cc1cccc(Cc2cccc(C)c2O)c1O [Compound 85476]
- Fold Select. (Neo/Bcl-XL) ([1]; Table 10): 2.9
- pIC50 [1, 5]: 4.73
- pIC50 [2, 6]: 4.26

SMILES: Cc1cc(Cc2cc(C)cc(C(C)(C)C)c2O)c(O)c(C(C)(C)C)c1 [Compound 7781]
- Fold Select. (Neo/Bcl-XL) ([1]; Table 10): 2.8
- pIC50 [1, 5]: 5.80
- pIC50 [2, 6]: 5.35

SMILES: Cc1cc(Sc2cc(C)cc(C(C)(C)C)c2O)c(O)c(C(C)(C)C)c1 [Compound 67488]
- Fold Select. (Neo/Bcl-XL) ([1]; Table 10): 6.8
- pIC50 [1, 5]: 4.84

SMILES: Cc1cc(Cl)cc(Cc2cc(Cl)cc(C)c2O)c1O [Compound 77122]
- Fold Select. (Neo/Bcl-XL) ([1]; Table 10): 3.3
- pIC50 [1, 5]: 5.70
- pIC50 [2, 6]: 5.18

SMILES: CN(Cc1cc(C(C)(C)C)cc(Br)c1O)Cc1cc(C(C)(C)C)cc(Br)c1O [Compound 48881]
- Neo/Bcl-XL ([1]; Table 19): 4.6
- pEC50 ([1]; Table 19, read-out: Bcl-XL): 5.21
- pEC50 ([2]; Table 19, read-out: Neo): 4.55

SMILES: CC(C)(C)c1ccc(O)c(Sc2cc(C(C)(C)C)ccc2O)c1 [Compound 2855]
- Fold Select. (Neo/Bcl-XL) ([1]; Table 11): 0

SMILES: Cc1cc(O)c(Sc2c(O)cc(C)c(Cl)c2C)c(C)c1Cl [Compound 9875]
- Fold Select. (Neo/Bcl-XL) ([1]; Table 10): 6.3
- pIC50 [1, 5]: 6.05
- pIC50 [2, 6]: 5.24

SMILES: Cc1cc(O)c(Sc2c(O)cc(C)c(Cl)c2C)c(C)c1Cl [Compound 52168]
- Fold Select. (Neo/Bcl-XL) ([1]; Table 10): 5.2
- pIC50 [1, 5]: 6.00
- pIC50 [2, 6]: 5.28

SMILES: COc1ccccc1Cc1ccccc1OC [Compound 78834]
- Fold Select. (Neo/Bcl-XL) ([1]; Table 11): 0

SMILES: CC(C)c1ccc(S(=O)(=O)c2ccc([N+](=O)[O-])cc2[N+](=O)[O-])cc1 [Compound 85653]
- Fold Selectivity (Neo/Bcl-XL) ([1]; Table 15): 2.7
- pIC50 [1, 3]: 5.35
- pIC50 [2, 4]: 4.92

SMILES: O=[N+]([O-])c1ccc(S(=O)(=O)c2ccccc2)c2nonc12 [Compound 0219]
- pEC50 ([1]; Table 6, TAMH cells overexpressing Bcl-xL (Tabx2s), read-out: 2S EC50): 5.12

SMILES: Oc1ccc2ccccc2c1Cc1c(O)ccc2ccccc12 [Compound 5992]
- pIC50 [1, 5]: 5.52 and 5.36
- pIC50 [2, 6]: 4.91 and 5.10

SMILES: Cc1c(Cl)cc(C(C)(C)C)c(O)c1Cc1c(C)c(Cl)cc(C(C)(C)C)c1O [Compound 5857]
- Fold Select. (Neo/Bcl-XL) ([1]; Table 10): 2.8
- pIC50 [1, 5]: 5.35
- pIC50 [2, 6]: 4.90

SMILES: CCc1cc(Cc2cc(CC)cc(C(C)(C)C)c2O)c(O)c(C(C)(C)C)c1 [Compound 7782]
- Fold Select. (Neo/Bcl-XL) ([1]; Table 10): 1.7
- pIC50 [1, 5]: 5.68
- pIC50 [2, 6]: 5.46

SMILES: O=C(c1cc(Br)ccc1O)c1cc(Br)ccc1O [Compound 4631]
- Fold Select. (Neo/Bcl-XL) ([1]; Table 10): 1.7
- pIC50 [1, 5]: 5.07
- pIC50 [2, 6]: 4.85

SMILES: O=S(=O)(c1cc(Cl)ccc1O)c1cc(Cl)ccc1O [Compound 406932]
- Fold Select. (Neo/Bcl-XL) ([1]; Table 10): 4.4
- pIC50 [1, 5]: 4.87
- Fold Selectivity (Neo/Bcl-XL) ([1]; Table 15): 4.4
- pIC50 [1, 3]: 4.87
- pIC50 [2, 6]: 4.24
- pIC50 [2, 4]: 4.24

SMILES: Cc1cc(C(C)(C)C)cc(Cc2cc(C(C)(C)C)cc(Cc3cc(C(C)(C)C)cc(C)c3O)c2O)c1O [Compound 634604]
- Fold Select. (Neo/Bcl-xL) ([1]; Table 13): 6.4
- pIC50 [1, 7]: 5.30
- pIC50 [2, 8]: 4.49

SMILES: Cc1cc(O)c(O)c(Oc2cc(C)cc(O)c2O)c1 [Compound 330927]
- Fold Select. (Neo/Bcl-XL) ([1]; Table 10): 5
- pIC50 [1, 5]: 4.70

SMILES: CC(=O)Nc1ccc(Sc2ccc(NC(C)=O)cc2O)c(O)c1 [Compound 4581]
- Fold Select. (Neo/Bcl-XL) ([1]; Table 11): 0

SMILES: O=C(O)c1cc(Cl)cc(Cc2cc(Cl)cc(C(=O)O)c2O)c1O [Compound 48684]
- Fold Select. (Neo/Bcl-XL) ([1]; Table 11): 0

SMILES: Cc1cc(Cc2cc(C)cc(C(C)(C)C)c2O)c(O)c(Cc2cc(C)cc(C(C)(C)C)c2O)c1 [Compound 62914]
- Fold Select. (Neo/Bcl-xL) ([1]; Table 13): > 20 and 22.7

SMILES: COc1cc(C)ccc1C(=O)c1ccc(C)cc1OC [Compound 143532]
- Fold Select. (Neo/Bcl-XL) ([1]; Table 11): 0

SMILES: Cc1cc(Cc2cc(C)c(N)cc2N)c(N)cc1N [Compound 7215]
- Fold Select. (Neo/Bcl-XL) ([1]; Table 11): 0
